Reference: US11160797B2, “Pyridinone derivatives and their use as selective ALK-2 inhibitors” (NOVARTIS AG, priority 2017, dated 2021)

Experiments:
male Sprague Dawley rats = assay: Turpentine oil-induced increase in serum hepcidin in rats; format: in vivo, rat; settings: for Serum hepcidin concentration: 24 h post-TO
Procedure: Measurements of serum hepcidin concentration were performed using a custom-made LC-MRM assay.
6 hours post-TO application sublingual blood samples were taken and serum was prepared from whole blood using clot activator centrifugation tubes (Sarstedt). […] 24 h post-TO application rats were sacrificed by CO2 overdosing and blood was isolated by venipuncture for serum preparation as described above. […] Statistical analyses were performed using GraphPad Prism software (GraphPad Software, Inc., La Jolla, Calif.) by two-way repeated measurement analysis of variance followed by Dunnett's multiple comparisons post-hoc test comparing treatment groups to the vehicle control group.

[1] = molecular target: T1, wild-type ALK2 (aa172-499) (Homo sapiens (Human), UniProt Q04771); assay: Caliper biochemical peptide phosphorylation assay, ALK2; settings: Caliper peptide phosphorylation, 15 uM ATP; read-out: ALK2 IC50
T1 sequence (Q04771 172-499): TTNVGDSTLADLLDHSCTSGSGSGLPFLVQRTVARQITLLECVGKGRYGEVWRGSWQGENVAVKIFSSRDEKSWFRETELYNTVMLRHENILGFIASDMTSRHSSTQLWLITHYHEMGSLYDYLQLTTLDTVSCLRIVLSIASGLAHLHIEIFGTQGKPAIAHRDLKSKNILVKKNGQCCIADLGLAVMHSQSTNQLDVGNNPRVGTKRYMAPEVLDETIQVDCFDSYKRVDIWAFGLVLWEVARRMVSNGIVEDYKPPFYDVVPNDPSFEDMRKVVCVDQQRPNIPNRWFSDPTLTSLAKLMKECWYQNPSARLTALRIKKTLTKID

[2] = molecular target: T1, wild-type ALK2 (aa172-499); assay: ADPGlo biochemical autophosphorylation assay, ALK2; settings: 15 uM ATP
female Wistar rats = assay: Achilles midpoint tenotomy-induced heterotopic ossification in rats; format: in vivo, rat; settings: 10 mg/kg q.d. oral
Description: To test whether compound A was able to prevent trauma-induced heterotopic ossification (HO) of soft tissue, we tested its therapeutic efficacy in a rat model of unilateral Achilles midpoint tenotomy (Rooney et al., Matrix 12: 274-281, 1992). To this end, the left Achilles tendon of 8-week-old female Wistar rats (body weight between 190-265 g) was completely transected using a sterile scalpel (blade number 11) under isoflurane inhalation narcosis with concomitant analgesic treatment applying 0.03 mg/kg buprenorphine for 48 hours every 10-12 h subcutaneously. Preventive oral treatment with compound A (10 mg/kg q.d.) or vehicle (sodium carboxymethyl cellulose:water:Tween 80, 0.5:99:0.5) was given for 10 weeks starting on the day of surgery (n=11-12 rats per group). […] Treatment efficacy was assessed longitudinally by taking radiographs of the operated distal leg (Faxitron LX-60 system) at 4 and 10 weeks post-tenotomy. Heterotopic bone volume was quantified in vivo by micro-computed tomography (micro-CT) under isoflurane inhalation narcosis (vivaCT40 instrument, Scanco Medical AG; 17.5 μm resolution) at 6 and 9 weeks post-surgery. […]

[3] = test system: 18-month-old Wistar female rats; assay: Bone gain in aged rats (pQCT and micro-CT, proximal tibia metaphysis); format: in vivo, rat; settings: 5 mg/kg q.d. oral, 8 weeks, mean ± SEM
Procedure: To assess the bone anabolic potential of compound A, its therapeutic efficacy in aged female rats as a model of age-related human osteoporosis and other low bone mass conditions was tested. To this end, 18-month-old Wistar female rats (n=8-9 rats per group; body weight range: 330-460 g) were subjected to two-month once daily oral treatment with compound A (5 mg/kg q.d.) or vehicle (sodium carboxymethyl cellulose:water:Tween 80, 0.5:99:0.5). Rats were housed at 25° C. with a 12:12 h light-dark cycle and were fed a standard rodent diet containing 18.2% protein and 3.0% fat with an energy content of 15.8 MJ/kg (3890, Provimi Kliba SA) with food and water provided ad libitum. Treatment efficacy was determined by in vivo peripheral quantitative computed tomography (pQCT) and micro-computed tomography (micro-CT) in the left proximal tibia metaphysis under isoflurane inhalation narcosis (Stratec-Norland XCT-2000 pQCT; voxel size: 0.1 mm×0.1 mm×0.5 mm; vivaCT40 instrument, Scanco Medical AG; 12.5 μm resolution) after 8 weeks of treatment. […] The latter was related to enhanced trabecular thickness, but not number. Thus, compound A is bone anabolic in the aged skeleton.

[4] = molecular target: ALK2 FOP mutant (aa172-499 R206H) (Homo sapiens (Human), UniProt Q04771, R206H); assay: Caliper biochemical peptide phosphorylation assay, ALK2 FOP; settings: Caliper peptide phosphorylation, R206H, 15 uM ATP; read-out: ALK2 FOP EPK IC50
Chain of ALK2 FOP mutant (aa172-499 R206H) (Q04771 172-499 R206H): as the sequence (Q04771 172-499) above, with R35H counted along it

ALK5 (aa162-503) = ALK5 (aa162-503) (Homo sapiens (Human), UniProt P36897); assay: Caliper biochemical peptide phosphorylation assay, ALK5; settings: 15 uM ATP
Chain of ALK5 (aa162-503) (P36897 162-503): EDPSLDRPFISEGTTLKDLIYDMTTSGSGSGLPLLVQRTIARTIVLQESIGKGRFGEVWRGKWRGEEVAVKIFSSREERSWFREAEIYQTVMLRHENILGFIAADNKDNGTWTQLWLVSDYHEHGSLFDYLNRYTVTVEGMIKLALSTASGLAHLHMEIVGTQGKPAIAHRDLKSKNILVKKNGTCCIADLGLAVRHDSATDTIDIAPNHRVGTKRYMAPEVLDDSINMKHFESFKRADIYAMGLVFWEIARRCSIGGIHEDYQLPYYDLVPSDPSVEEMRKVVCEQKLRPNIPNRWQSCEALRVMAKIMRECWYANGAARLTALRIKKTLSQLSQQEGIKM
Outline: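 Baculovirus-expressed human GS+kinase-domain constructs (10 nM) with 2 uM fluorescein-labelled peptide and 15 uM ATP in 50 mM Hepes pH 7.5, 1 mM MgCl2, 12 mM MnCl2, 1 mM DTT, 10 uM Na3VO4, 60 min at 30 °C. EDTA stop; phospho/unphosphorylated peptide separated by microfluidic electrophoresis, r = p/(p+s); IC50 at half-maximal signal inhibition.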

C57BL/6J male mice = settings: mouse, in vivo
ALK2(Q207D) mice = assay: ALK2-dependent heterotopic ossification in ALK2(Q207D) transgenic mice; format: in vivo, mouse; settings: 3 and 5 weeks post-induction, 10 mg/kg b.i.d. oral

CC(C)n1cc(-c2cncc(-c3ccc4c(c3)CC(=O)N4C)c2)ccc1=O [Example 1, 5-(1′-isopropyl-6′-oxo-1′,6′-dihydro-[3,3′-bipyridin]-5-yl)-1-methylindolin-2-one]
Serum hepcidin levels (male Sprague Dawley rats; 6 hours post-TO, 3 or 10 mg/kg p.o.): strongly suppressed | Serum hepcidin concentration (male Sprague Dawley rats; 3 mg/kg p.o.): returned to levels of vehicle-treated TO-challenged rats | Serum hepcidin concentration (male Sprague Dawley rats; 10 mg/kg p.o., p<0.001): significantly reduced | IC50 [1]: 110 nM | IC50 [2]: 110 nM | Animals with radiographic evidence of beginning HO (female Wistar rats; 4 weeks post-tenotomy, vehicle 100%): 67% | Total heterotopic bone volume (female Wistar rats; 6 and 9 weeks post-surgery, versus vehicle): significant reduction of HO | Cancellous BV/TV, %-change versus baseline ([3]; micro-CT): 8.9 ± 3.0 % | Cortical thickness, %-change versus baseline ([3]; micro-CT): 12.0 ± 2.2 % | Total BMD, %-change versus baseline ([3]; micro-CT): 5.6 ± 0.6 % | Trabecular number, %-change versus baseline ([3]; micro-CT): −0.6 ± 5.4% | Trabecular thickness, %-change versus baseline ([3]; micro-CT): 11.1 ± 2.9 % | Total BMC, %-change versus baseline ([3]; pQCT): 4.3 ± 1.7 % | IC50 [4]: 90 nM | IC50 (ALK5 (aa162-503)): 2600 nM | Blood hemoglobin (C57BL/6J male mice): significantly improved | Hematocrit (C57BL/6J male mice): significantly improved | Females in which heterotopic bone was absent (micro-CT) (ALK2(Q207D) mice): four of five | Heterotopic bone (total heterotopic bone volume, micro-CT), males (ALK2(Q207D) mice): absent | Female mice with radiographic evidence of HO (ALK2(Q207D) mice; vehicle 67%): one out of five | Male mice with radiographic evidence of HO (ALK2(Q207D) mice; vehicle 83%): none
